Here are results for 15 compounds from US20090325964A1, “Piperazine Metabotropic Glutamate Receptor 5 (MGLUR5) Negative Allosteric Modulators For Anxiety/Depression” (Wyeth, priority 2008, published 2009).

Like-named read-outs stand apart in the source and are kept apart here.

What is called Ki is a dissociation constant, usually derived from enzyme kinetics or from competition with a known ligand. In general, IC50 refers to the point on the concentration scale where inhibition reaches its midpoint.

The test concerns the target T1, rat mGluR5 receptor (Rattus norvegicus, UniProt P31424).
T1 construct: expressed in transfected cells; host or cells: HEK-293
The experiment in a line: [3H]-MPEP displacement binding assay, HEK-293 cell membranes expressing rat mGluR5. Conditions: for Ki: read-out: Median Ki; for IC50: no Ki given, read-out: IC50 (printed in the Median Ki column instead of a Ki). The method, then:
MGluR5 expressing HEK-293 cells were scraped off a plate, transferred to centrifuge tubes and washed twice by centrifugation (2000 rpm for 10 minutes, at 4° C.) in buffer (50 mM Tris pH 7.5). The resulting pellets were aliquoted and stored at minus 80° C. On the day of assay, the cells were thawed on ice and re-suspended in buffer. The binding assay was performed in a 96 well microtiter plate in a total volume of […]. Non-specific binding was determined in the presence of 10 μM MPEP. The binding reaction included a final radioligand [^3H]-MPEP concentration of 4 nM and 12-25 μg membrane protein per well. Following a 60 minute incubation at room temperature, the reaction was terminated by the addition of ice cold buffer and rapid filtration through a GF/B filter that had been presoaked for 30 minutes in 0.5% PEI. Compounds were initially tested in a single point assay to determine percent inhibition at 10 μM.
Percent inhibition and Ki values were generated by GraphPad Prism and Excel Fit. IC50 values were calculated using GraphPad by fitting to a 1 or 2 site-binding model.
where [L] is the concentration of free radioligand and Kd is the dissociation constant of radioligand for the receptor.

Where [1] appears, read: [3H]-MPEP displacement, rat mGluR5.
The mark [2] stands for this setting: @ 10 μM compound, Biological Activity, Table 2A, read-out: PCT INHIB (%) @ 10 μM.
The mark [3] stands for this setting: 1 h, single point, @ 10 μm compound, Table 1A, read-out: PCT INHIB (%) @ 10 μm.

T1 sequence (P31424 21-1203): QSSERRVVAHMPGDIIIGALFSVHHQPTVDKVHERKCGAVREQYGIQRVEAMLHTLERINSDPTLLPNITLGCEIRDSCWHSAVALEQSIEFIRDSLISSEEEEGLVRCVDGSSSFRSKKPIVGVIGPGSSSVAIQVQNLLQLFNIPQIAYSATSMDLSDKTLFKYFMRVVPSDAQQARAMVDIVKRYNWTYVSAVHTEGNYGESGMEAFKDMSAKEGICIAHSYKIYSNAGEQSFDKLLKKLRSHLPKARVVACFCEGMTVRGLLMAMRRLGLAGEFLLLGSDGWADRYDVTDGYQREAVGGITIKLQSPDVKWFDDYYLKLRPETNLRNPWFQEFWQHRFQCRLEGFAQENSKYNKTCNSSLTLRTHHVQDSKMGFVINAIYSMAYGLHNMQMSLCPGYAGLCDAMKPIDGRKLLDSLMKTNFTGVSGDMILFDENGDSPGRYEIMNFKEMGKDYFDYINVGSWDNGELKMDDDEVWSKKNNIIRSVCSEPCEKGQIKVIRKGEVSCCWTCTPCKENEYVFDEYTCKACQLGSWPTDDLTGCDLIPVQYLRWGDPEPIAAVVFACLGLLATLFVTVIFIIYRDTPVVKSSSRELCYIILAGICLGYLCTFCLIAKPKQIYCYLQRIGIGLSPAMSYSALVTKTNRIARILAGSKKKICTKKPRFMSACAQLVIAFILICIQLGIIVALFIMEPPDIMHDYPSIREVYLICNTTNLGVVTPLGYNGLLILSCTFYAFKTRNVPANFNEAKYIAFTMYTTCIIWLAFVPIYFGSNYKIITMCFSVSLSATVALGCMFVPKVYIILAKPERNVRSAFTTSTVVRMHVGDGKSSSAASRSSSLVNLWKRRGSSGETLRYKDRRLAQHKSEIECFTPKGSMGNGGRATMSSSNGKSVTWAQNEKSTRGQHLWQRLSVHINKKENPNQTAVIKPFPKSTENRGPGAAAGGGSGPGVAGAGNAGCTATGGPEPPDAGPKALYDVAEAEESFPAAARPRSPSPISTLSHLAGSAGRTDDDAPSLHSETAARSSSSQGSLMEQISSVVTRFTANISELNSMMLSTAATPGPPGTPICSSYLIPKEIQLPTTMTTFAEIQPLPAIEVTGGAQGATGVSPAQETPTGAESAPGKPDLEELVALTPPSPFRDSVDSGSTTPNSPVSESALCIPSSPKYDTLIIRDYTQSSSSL

As for `COc1ccc(C(=O)N2CCCN(c3ccc([N+](=O)[O-])cn3)CC2)cc1C#Cc1ccccn1` [Compound 215, 1-[4-methoxy-3-(pyridin-2-ylethynyl)benzoyl]-4-(5-nitropyridin-2-yl)-1,4-diazepane], the Ki under setting [1] amounted to 2190 nM.

Turning to `COc1nc(OC)nc(N2CCN(C(=O)c3ccc(OC)c(C#Cc4ccccn4)c3)CC2)n1` [Compound 305, 2,4-dimethoxy-6-{4-[4-methoxy-3-(pyridin-2-ylethynyl)benzoyl]piperazin-1-yl}-1,3,5-triazine], the Ki under setting [1] was found to be 229 nM.

As for `CC1CN(c2ccccn2)CCN1C(=O)c1cccc(C#Cc2ccccn2)c1` (centres unmarked) [Compound 98, 2-methyl-4-pyridin-2-yl-1-[3-(pyridin-2-ylethynyl)benzoyl]piperazine], under setting [2], the inhibition at 10 µM amounted to 72%. In addition, the Ki (Biological Activity, Table 2A) is 679 nM.

As to `COc1ccc(C(=O)N2CCN(c3ncccc3Cl)CC2)cc1C#Cc1ccc(OC(F)(F)F)cc1` [Compound 348, 1-(3-chloropyridin-2-yl)-4-(4-methoxy-3-{[4-(trifluoromethoxy)phenyl]ethynyl}benzoyl)piperazine], the IC50 under setting [1] was > 10000 nM.

Consider `COc1ccc(C(=O)N2CCN(c3ccccn3)CC2)cc1OCc1cccc(Cl)c1` [Compound 160, 1-{3-[(3-chlorobenzyl)oxy]-4-methoxybenzoyl}-4-pyridin-2-ylpiperazine], for which, under “single point, @ 10 μM compound, Table 3A, read-out: PCT INHIB (%) @ 10 μM”, the inhibition at 10 µM came out at 11%.

In the case of `Cc1ccc(C(=O)N2CCN(c3ccccn3)CC2)cc1C#Cc1cccc(Cl)c1` [Compound 28, 1-{3-[(3-chlorophenyl)ethynyl]-4-methylbenzoyl}-4-pyridin-2-ylpiperazine], the inhibition constant (Ki) stood at 76 nM. Further, the inhibition at 10 µM under setting [3] came out at 79%.

In the case of `COc1ccc(C(=O)N2CCN(c3ncccc3Cl)CC2)cc1C#Cc1ccc(C(F)(F)F)cc1` [Compound 349, 1-(3-chloropyridin-2-yl)-4-(4-methoxy-3-{[4-(trifluoromethyl)phenyl]ethynyl}benzoyl)piperazine], the half-maximal inhibitory concentration (IC50) under setting [1] is > 10000 nM.

With `O=C(c1ccc(F)c(C#Cc2ccccn2)c1)N1CCN(c2ncc(Cl)cc2Cl)CC1` [Compound 314, 1-(3,5-dichloropyridin-2-yl)-4-[4-fluoro-3-(pyridin-2-ylethynyl)benzoyl]piperazine], the Ki under setting [1] came out at 1840 nM.

Turning to `COc1ccc(C(=O)N2CCCN(c3ccc(C#N)cn3)CC2)cc1C#Cc1ccccn1` [Compound 202, 6-{4-[4-methoxy-3-(pyridin-2-ylethynyl)benzoyl]-1,4-diazepan-1-yl}nicotinonitrile], under setting [1], the Ki came out at 1040 nM.

Take `COc1ccc(C(=O)N2CCN(c3cc4ccccc4s3)CC2)cc1C#Cc1ccccn1` [Compound 290, 1-(1-benzothiophen-2-yl)-4-[4-methoxy-3-(pyridin-2-ylethynyl)benzoyl]piperazine]: the concentration for half-maximal inhibition (IC50) under setting [1] was > 10000 nM.

Consider `Cc1ccc(C#Cc2cccc(C(=O)N3CCN(c4ccccn4)CC3)c2)cc1` [Compound 1, 1-{3-[(4-methylphenyl)ethynyl]benzoyl}-4-pyridin-2-ylpiperazine], for which the inhibition at 10 µM under setting [3] stood at 55%.

On to `COc1ccc(C(=O)N2CCN(c3ccncc3)CC2)cc1C#Cc1ccccc1` [Compound 145, 1-[4-methoxy-3-(phenylethynyl)benzoyl]-4-pyridin-4-ylpiperazine], for which the inhibition at 10 µM under setting [2] is 91%. In addition, the inhibition constant (Ki) (Biological Activity, Table 2A) was 1300 nM.

Regarding `COc1cccc(C#Cc2cc(C(=O)N3CCN(c4cnccn4)CC3)ccc2C)c1` [Compound 58, 2-(4-{3-[(3-methoxyphenyl)ethynyl]-4-methylbenzoyl}piperazin-1-yl)pyrazine], the Ki was 322 nM. Moreover, the inhibition at 10 µM under setting [3] is 93%.

With `O=C(c1cccc(C#Cc2ccccc2)c1)N1CCN(c2cc(Cl)cc(Cl)c2)CC1` [Compound 84, 1-(3,5-dichlorophenyl)-4-[3-(phenylethynyl)benzoyl]piperazine], under setting [2], the inhibition at 10 µM stood at 0%.

As to `COc1ccc(C(=O)N2CCN(c3ccccn3)CC2)cc1C#Cc1ccc(F)c(C)c1` [Compound 37, 1-{3-[(4-fluoro-3-methylphenyl)ethynyl]-4-methoxybenzoyl}-4-pyridin-2-ylpiperazine], the inhibition constant Ki is 54.7 nM. Besides, the inhibition at 10 µM under setting [3] amounted to 74%.
